pEC50: −log10 of the molar value.
Tests used:
hHCN2 = assay: Gs coupling test: hHCN2 current in HEK293 cells coexpressing ORs and hHCN2; assay type: cell-based, human; conditions: 2 min 100 nM Etb; Or22a, Or83b and hHCN2 coexpressed
Protocol: (§1) HEK293 cells were cultured as described by Wicher and colleagues (Wicher et al., J. Biol. Chem. 281, 3227-36 (2006)). In brief, HEK293 cells were cultured at a density of ∼2*10^4 per 35-mm dish and transfected with 1 µg pcDNA3-DOR22a-GFP and 1 µg pcDNA3-DOR83b-GFP (Neuhaus, et al., Nat. Neurosci. 8, 15-17 (2005); DNAs were a generous gift of Dr. E. Neuhaus and Dr. H. Hatt) using Roti-Fect transfection kit (Roth, Karlsruhe, Germany). In some experiments we transfected cells with pcDNA3-DOR22a-GFP or pcDNA3-DOR83b-GFP alone. We also examined the properties of DOR47a, which was cloned, using standard molecular biology methods into a pcDNA3.1(-) expression vector. To test for putative G-protein coupling, cells were transfected with the respective OR-DNA together with 1.5 µg hHCN2/pcDNA3 (provided by M. Biel, Munich, Germany), with 1 µg hKCNQ4/pcDNA3.1 or with 1 µg hCNGA2/pCMV6-XL4 (Origene, Rockville, MD, USA).
Ion currents in HEK293 cells were measured with the patch-clamp technology as described (Wicher et al, J. Biol. Chem. 281, 3227-36 (2006)). In brief, ion currents in HEK293 cells were measured at room temperature using whole-cell patch-clamp with appropriate compensation of series resistance and of capacitive currents. Additional experiments were performed in the outside-out configuration. […]

hCNGA2 = assay: Gs coupling test: hCNGA2 whole-cell current in HEK293 cells; assay type: cell-based, human
Protocol: as §1
Ion currents in HEK293 cells were measured with the patch-clamp technology as described (Wicher et al, J. Biol. Chem. 281, 3227-36 (2006)). In brief, ion currents in HEK293 cells were measured at room temperature using whole-cell patch-clamp with appropriate compensation of series resistance and of capacitive currents. Additional experiments were performed in the outside-out configuration. Current measurements and data acquisition were performed using an EPC9 patch-clamp amplifier controlled by PatchMaster software (both HEKA Elektronik, Lambrecht, Germany). Patch-clamp pipettes were fabricated from borosilicate capillaries. Pipettes for whole-cell recordings had resistances of 2-4 MΩ for excised-patch recordings the pipette resistance was up to 15 MΩ.

Or22a and Or83b = molecular target: T1, Or22a and Or83b (Drosophila melanogaster, UniProt P81909+Q9VNB5); assay: Radioreceptor assay of cAMP content of HEK293 cells expressing Or22a and Or83b; assay type: cell-based; conditions: 100 nM Etb for 15 min; n = 3 experiments; control 1.28 ± 0.06
T1 construct: expressed in transfected cells; host or cells: HEK293
T1 sequence (P81909 1-397): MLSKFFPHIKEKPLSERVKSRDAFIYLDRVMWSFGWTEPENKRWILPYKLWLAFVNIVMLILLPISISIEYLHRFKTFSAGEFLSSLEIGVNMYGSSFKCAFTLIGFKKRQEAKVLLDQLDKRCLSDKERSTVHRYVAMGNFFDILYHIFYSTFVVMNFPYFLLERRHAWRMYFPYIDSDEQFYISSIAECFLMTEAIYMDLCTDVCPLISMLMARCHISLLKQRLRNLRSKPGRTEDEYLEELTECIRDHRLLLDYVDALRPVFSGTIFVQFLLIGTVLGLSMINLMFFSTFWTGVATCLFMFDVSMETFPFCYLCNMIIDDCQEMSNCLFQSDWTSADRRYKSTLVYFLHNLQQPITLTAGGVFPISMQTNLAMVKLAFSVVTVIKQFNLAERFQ
T1 sequence (Q9VNB5 1-486): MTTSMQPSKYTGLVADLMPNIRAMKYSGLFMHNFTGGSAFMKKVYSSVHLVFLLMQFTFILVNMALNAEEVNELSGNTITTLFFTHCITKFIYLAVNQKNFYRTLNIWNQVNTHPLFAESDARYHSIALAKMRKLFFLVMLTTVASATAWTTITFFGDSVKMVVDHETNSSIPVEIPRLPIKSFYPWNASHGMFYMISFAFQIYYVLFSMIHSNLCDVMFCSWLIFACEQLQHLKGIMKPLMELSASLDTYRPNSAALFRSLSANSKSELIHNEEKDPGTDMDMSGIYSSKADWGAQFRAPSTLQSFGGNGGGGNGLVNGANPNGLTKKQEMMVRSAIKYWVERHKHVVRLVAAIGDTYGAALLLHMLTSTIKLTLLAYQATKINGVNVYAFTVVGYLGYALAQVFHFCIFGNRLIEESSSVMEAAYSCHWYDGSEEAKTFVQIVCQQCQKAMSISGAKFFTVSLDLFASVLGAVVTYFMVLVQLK
Protocol: Monolayers of HEK293 cells were incubated for 30 min in HEPES Ringer's buffer containing 1 mM isobutylmethylxanthine and stimulated with 100 nM Etb for 15 min. The reaction was stopped with 96% ethanol, and after evaporation, 50 mM Tris/4 mM EDTA (pH 7.5) was added.

CCCC(=O)OCC [Etb, ethyl butyrate]
effect on hHCN2 current time course (hHCN2): accelerated the current time course | effect on CNGA2 current (hCNGA2; cells expressing Or22a plus Or83b or Or22a alone): concentration-dependent rise in CNGA2 current | Hill coefficient of Etb-induced currents (hCNGA2; cells expressing hCNGA2 and Or22a, -80 mV, n = 5): 0.54 | pEC50 (hCNGA2; cells expressing hCNGA2 and Or22a, -80 mV, normalized to controls, n = 5, read-out: EC50 of Etb-induced currents): 8.52 | response of hCNGA2 current (hCNGA2; cells solely expressing CNGA2, Etb 100 nM, forskolin 10 µM, -80 mV): did not respond | cAMP level (Or22a and Or83b): 1.65 ± 0.10 pmol/mg protein

Source: patent publication EP2108954A1, “A test system for detecting intracellular cyclic nucleotide level and methods and uses thereof” (Max-Planck-Gesellschaft zur Förderung der Wissenschaften …, priority 2008, dated 2009)
